In ChEMBL document CHEMBL1147124, “Antigiardial activity of triterpenoids from root bark of Hippocratea excelsa” (J Nat Prod, 2007):

System: Giardia intestinalis
Experiment: Antiprotozoal activity against Giardia intestinalis IMSS:0696:1 trophozoites after 48 hrs
Type: functional, organism-based
Conditions: Giardia duodenalis

IC50 | Structure (SMILES)
11.3 µM | COC(=O)[C@]1(C)CC[C@]2(C)CC[C@]3(C)C4=CC=C5C(=CC(=O)[C@]6(O)Oc7cc8c(cc7O[C@]56C)C(=O)C=C5[C@@]8(C)CC[C@@]6(C)[C@@H]7C[C@](C)(C(=O)OC)CC[C@]7(C)CC[C@]56C)[C@]4(C)CC[C@@]3(C)[C@@H]2C1 [XUXARINE EBETA]
22.4 µM | COC(=O)/C=C1\C(C(C)=O)=CC=C2[C@]3(C)CC[C@@]4(C)CC[C@@](C)(C(=O)OC)CC4[C@@]3(C)CC[C@]21C (stereo partly specified) [DZUNUNCANONE]

The next lines start with the compound.

Structure (SMILES) | IC50
CC1(C)C[C@H]2C3=CC[C@@H]4[C@@]5(C)CCC(=O)C(C)(C)[C@@H]5CC[C@@]4(C)[C@]3(C)CC[C@@]2(C)C[C@@H]1O | 27.4 µM
CC1=C(O)C(=O)C=C2C1=CC=C1[C@@]2(C)CC[C@@]2(C)[C@@H]3C[C@@H](C)C(=O)C[C@]3(C)CC[C@]12C [TINGENONE] | 0.74 µM
C[C@H]1C(=O)CCC2[C@]3(C)CC[C@@]4(C)C5CC(C)(C)[C@H](O)C[C@]5(C)CC[C@]4(C)C3CC[C@@]21C (stereo partly specified) | 19.8 µM
COC(=O)[C@]1(C)CC[C@]2(C)CC[C@]3(C)C4=CC=C5C(=CC(=O)C(O)=C5C)[C@]4(C)CC[C@@]3(C)[C@@H]2C1 [PRISTIMERIN] | 0.11 µM
